Activity calls are given as the source filed them. No cut-off for these calls is given here.
How the values were obtained:
Protein smoothened [1] = biological target: T1, Protein smoothened (Homo sapiens, UniProt Q99835); assay: Antagonist activity at smoothened (unknown origin) expressed in mouse Shh Light2 cells co-expressing Gli-dependent reporter gene assessed as inhibition of Shh signaling at 2 uM by dual luciferase reporter gene assay; format: functional, cell-based; details: Shh Light II
Protein smoothened [2] = biological target: T1, Protein smoothened; assay: Antagonist activity at smoothened (unknown origin) expressed in mouse Shh Light2 cells co-expressing Gli-dependent reporter gene assessed as inhibition of Shh signaling at 0.5 uM by dual luciferase reporter gene assay; format: functional, cell-based; details: Shh Light II
Daoy = assay: Antiproliferative activity against human DaOY cells assessed as growth inhibition at 10 uM after 48 hrs by MTT assay; format: functional, cell-based
Danio rerio = species: Danio rerio; assay: Antagonist activity at smoothened in zebrafish embryo assessed as reduction in Gli-dependent RFP expression compound treated at 20 to 80 uM at 2 hrs post fertilization measured 36 hrs post fertilization
HCT-116 = assay: Antiproliferative activity against human HCT116 cells assessed as growth inhibition at 10 uM after 48 hrs by MTT assay; format: functional, cell-based
[3] = Inhibition of Hedgehog signaling in mouse NIH/3T3 cells assessed as down regulation of mPTCH1 mRNA expression at 10 uM; format: cell-based; details: NIH3T3
Protein smoothened [4] = biological target: T1, Protein smoothened; assay: Antagonist activity at smoothened (unknown origin) expressed in mouse Shh Light2 cells co-expressing Gli-dependent reporter gene assessed as inhibition of Hh signaling by dual luciferase reporter gene assay; format: functional, cell-based, Shh Light II
Protein smoothened [5] = biological target: T1, Protein smoothened; assay: Displacement of BODIPY-cyclopamine from human SMO cyclopamine-binding site expressed in HEK293 cells at 10 to 100 nM after 4 hrs by Hoechst 33342 staining-based assay; format: cell-based
A549 = assay: Antiproliferative activity against human A549 cells assessed as growth inhibition at 10 uM after 48 hrs by MTT assay; format: functional, cell-based
SW1353 = assay: Antiproliferative activity against human SW1353 cells assessed as growth inhibition at 10 uM after 48 hrs by MTT assay; format: functional, cell-based
[6] = Inhibition of hedgehog signaling in mouse MSC cells assessed as down regulation of alkaline phosphatase at 20 to 80 uM; format: cell-based
Protein smoothened [7] = biological target: T1, Protein smoothened; assay: Displacement of BODIPY-cyclopamine from human SMO cyclopamine-binding site expressed in HEK293 cells at 50 to 200 nM after 4 hrs by Hoechst 33342 staining-based assay; format: cell-based

T1 sequence (Q99835 whole entry): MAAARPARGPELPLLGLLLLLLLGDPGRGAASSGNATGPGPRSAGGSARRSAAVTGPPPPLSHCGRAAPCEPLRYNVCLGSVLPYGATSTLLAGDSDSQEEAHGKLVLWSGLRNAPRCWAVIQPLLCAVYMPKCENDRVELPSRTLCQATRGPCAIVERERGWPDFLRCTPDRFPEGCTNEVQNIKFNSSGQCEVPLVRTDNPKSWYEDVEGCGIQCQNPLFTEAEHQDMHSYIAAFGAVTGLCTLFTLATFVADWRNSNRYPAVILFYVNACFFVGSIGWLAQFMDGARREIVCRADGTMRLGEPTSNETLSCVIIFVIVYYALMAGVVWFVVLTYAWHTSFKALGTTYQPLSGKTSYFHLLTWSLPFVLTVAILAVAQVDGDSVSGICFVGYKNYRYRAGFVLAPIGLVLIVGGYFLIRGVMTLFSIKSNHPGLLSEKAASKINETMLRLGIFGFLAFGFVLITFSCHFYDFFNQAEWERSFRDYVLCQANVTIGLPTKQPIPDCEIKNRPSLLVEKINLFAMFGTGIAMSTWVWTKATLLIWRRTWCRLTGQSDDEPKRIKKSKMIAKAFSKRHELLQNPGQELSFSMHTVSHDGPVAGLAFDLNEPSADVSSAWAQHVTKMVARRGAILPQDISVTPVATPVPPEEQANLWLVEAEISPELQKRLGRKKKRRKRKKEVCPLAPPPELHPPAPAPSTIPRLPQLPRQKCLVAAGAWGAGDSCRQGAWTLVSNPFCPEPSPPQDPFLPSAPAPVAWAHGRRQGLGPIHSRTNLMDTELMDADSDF

CCOc1ccc(NC(=O)Nc2cc(NC(=O)c3ccc(S(C)(=O)=O)cc3Cl)ccc2Cl)cc1
inhibition (Protein smoothened [1]): 66.1%
inhibition (Protein smoothened [2]): inactive

CS(=O)(=O)c1ccc(C(=O)Nc2ccc(Cl)c(C(=O)Nc3cccc(O)c3)c2)c(Cl)c1
growth inhibition (GI) (Daoy): Active
inhibition (Danio rerio): Active
inhibition (Protein smoothened [1]): 72.2%
growth inhibition (GI) (HCT-116): Active
inhibition [3]: Active
IC50 (Protein smoothened [4]): 40 nM
Activity (Protein smoothened [5]): Active
growth inhibition (GI) (A549): Active
growth inhibition (GI) (SW1353): Active
inhibition [6]: Active

CS(=O)(=O)c1ccc(C(=O)Nc2ccc(Cl)c(NC(=O)c3ccc(Cl)cn3)c2)c(Cl)c1
inhibition (Protein smoothened [1]): 30.5%

CS(=O)(=O)c1ccc(C(=O)Nc2ccc(Cl)c(NC(=O)Nc3ccc(Br)cc3F)c2)c(Cl)c1
inhibition (Protein smoothened [1]): 55.4%
inhibition (Protein smoothened [2]): inactive

CS(=O)(=O)c1ccc(C(=O)Nc2ccc(Cl)c(C(=O)Nc3cccnc3)c2)c(Cl)c1
inhibition (Protein smoothened [1]): 72.9%

CS(=O)(=O)c1ccc(C(=O)Nc2ccc(Cl)c(NC(=O)Nc3ccc(C(F)(F)F)cc3Cl)c2)c(Cl)c1
IC50 (Protein smoothened [4]): 300 nM

Cc1ccccc1NC(=O)c1cc(NC(=O)c2ccc(S(C)(=O)=O)cc2Cl)ccc1Cl
inhibition (Protein smoothened [1]): 73%

CS(=O)(=O)c1ccc(C(=O)Nc2ccc(Cl)c(NC(=O)c3cccc(C(F)(F)F)c3)c2)c(Cl)c1
inhibition (Protein smoothened [1]): 28.4%

CS(=O)(=O)c1ccc(C(=O)Nc2ccc(Cl)c(NC(=O)c3ccc(Cl)s3)c2)c(Cl)c1
inhibition (Protein smoothened [1]): 51.4%

Cc1cc(C)cc(NC(=O)c2cc(NC(=O)c3ccc(S(C)(=O)=O)cc3Cl)ccc2Cl)c1
inhibition (Protein smoothened [1]): 56.8%

CS(=O)(=O)c1ccc(C(=O)Nc2ccc(Cl)c(C(=O)Nc3cc(Cl)cc(Cl)c3)c2)c(Cl)c1
inhibition (Protein smoothened [1]): 46.6%

CCOc1ccc(NC(=O)c2cc(NC(=O)c3ccc(S(C)(=O)=O)cc3Cl)ccc2Cl)cc1
inhibition (Protein smoothened [1]): 70.4%

CS(=O)(=O)c1ccc(C(=O)Nc2ccc(Cl)c(-c3ccccn3)c2)c(Cl)c1
growth inhibition (GI) (Daoy): Active
inhibition (Danio rerio): Active
growth inhibition (GI) (HCT-116): Active
inhibition [3]: Active
growth inhibition (GI) (A549): Active
growth inhibition (GI) (SW1353): Active
inhibition [6]: Active

CS(=O)(=O)c1ccc(C(=O)Nc2ccc(Cl)c(NC(=O)c3ccccn3)c2)c(Cl)c1
inhibition (Protein smoothened [1]): 53.2%

CCc1ccccc1NC(=O)c1cc(NC(=O)c2ccc(S(C)(=O)=O)cc2Cl)ccc1Cl
inhibition (Protein smoothened [1]): 65.9%

Cc1ccc(NC(=O)c2cc(NC(=O)c3ccc(S(C)(=O)=O)cc3Cl)ccc2Cl)cc1
inhibition (Protein smoothened [1]): 67.5%

COc1ccc(NC(=O)c2cc(NC(=O)c3ccc(S(C)(=O)=O)cc3Cl)ccc2Cl)cc1
inhibition (Protein smoothened [1]): 69.8%

COc1cc(OC)cc(C(=O)Nc2cc(NC(=O)c3ccc(S(C)(=O)=O)cc3Cl)ccc2Cl)c1
inhibition (Protein smoothened [1]): 3.6%

CS(=O)(=O)c1ccc(C(=O)Nc2ccc(Cl)c(C(=O)Nc3ccc(Cl)cc3Cl)c2)c(Cl)c1
inhibition (Protein smoothened [1]): 0%

CS(=O)(=O)c1ccc(C(=O)Nc2ccc(Cl)c(NC(=O)Nc3ccc(Cl)cc3)c2)c(Cl)c1
inhibition (Protein smoothened [1]): 0%
inhibition (Protein smoothened [2]): inactive

COc1ccc(NC(=O)Nc2cc(NC(=O)c3ccc(S(C)(=O)=O)cc3Cl)ccc2Cl)cc1
inhibition (Protein smoothened [1]): 73.8%
inhibition (Protein smoothened [2]): inactive

Cc1cccc(NC(=O)c2cc(NC(=O)c3ccc(S(C)(=O)=O)cc3Cl)ccc2Cl)c1C
inhibition (Protein smoothened [1]): 76.3%
IC50 (Protein smoothened [4]): 100 nM
Activity (Protein smoothened [7]): Active

From ChEMBL document CHEMBL3124810, “Synthesis and biological evaluation of novel benzamide derivatives as potent smoothened antagonists” (Bioorg Med Chem Lett, 2014)
